According to patent US6906193B2, “N-type calcium channel antagonists for the treatment of pain” (AstraZeneca AB, priority 2000, dated 2005):
Read-outs that look alike come from different tables or passages of the source.

Legend:
[1] = target: N-type calcium channel (Homo sapiens, UniProt Q00975); experiment: N-channel FLIPR assay; format: cell-based
[2] = tested on: formalin-induced nocifensive behaviours; experiment: Formalin test; format: in vivo, rats; details: Rattus norvegicus, read-out: IPT (Formalin)
Method: The Formalin test assesses the inhibitory effects of orally administered N-type calcium channel antagonists on formalin-induced nocifensive behaviours in rats. The formalin test is a well established pain test (Dubuisson and Dennis, 1977; Wheeler-Aceto et al., 1990; Coderre et al., 1993). This test consists of two distinct phases of formalin-induced behaviour. The first phase response, occurring between 0 to 5 minutes, is caused by acute nociception to the noxious chemical (formalin) injected into the paw. This is followed by a quiescent period of between 5 to 15 min post injection. A second phase response, occurring after 15 minutes and lasting up to 60 minutes, is caused by sensitisation of the central neurons in the dorsal horn. Central sensitisation augments the noxious afferent input and a stronger pain barrage is transmitted into the brain. Inhibition of the second phase response is indicative of a central mechanism of drug action.
The procedure for the formalin test is as follows: male rats are placed in a plexiglass chamber and observed for 30-45 min. to observe their baseline activity. Multiple groups of animals are pretreated with either vehicle or different doses of a test compound. Animals are dosed with the drug of interest either 40 min., if by the intraperitoneal route, or 90 min., if by the oral route, prior to injection of formalin into a hind paw (under the dorsal skin; 0.05 mL of sterile 5% formalin). The number of paw flinches and licks during first phase (0-5 min.) and second phase (20-35 min.) are scored and recorded. Flinch and lick responses are calculated as percentage of inhibition compared with the mean score of a saline control group. Drug potencies are expressed as the dose which causes 50% of the maximum inhibitory effect (“ID50”). Student t-tests are used for statistical analysis to determine the significance of drug effects. Compounds are considered active based on their ability to inhibit the flinch response.

[3] = tested on: pain; details: in vivo; cited from earlier work
[4] = tested on: L-type calcium channel; experiment: L-channel FLIPR assay; format: cell-based, human; details: 5-point concentration-response curves; SK-N-SH cells
Method: An immortalized cell line, SK-N-SH, derived from human neuroblastoma cells (ATCC product # HTB-11) was used for all experiments. Cells were grown in T75 flasks containing Eagle's minimum essential medium (MEM) w/Earle's salts, with 0.1 mM non-essential amino acids, 1.0 mM Na pyruvate and 10% fetal bovine serum (FBS; Cat. # SLM-034-B, Specialty Media). Cells were grown to 100% confluency (by visual microscopic estimation) before sub-culture. Cells were sub-cultured at a ratio of 1:3 by first rinsing with 3 mL PBS, replacing the PBS with PBS containing 0.25% trypsin until the cells detached from the surface. 1 mL of the resulting suspension was then added to a new flask containing 10 mL fresh media. Cells were then incubated (37° C., 5% CO2), and media was exchanged about 3 days after subculturing.
Cells used for experiments were at the 100% confluency growth stage. Each flask provided enough cells for three 96-well plates. […]
Maximum signal (L-channel+non-specific): 12 wells received 20 μL buffer addition only (no nitrendipine) in the first solution addition sequence to define the maximal K^+-evoked Ca^2+ increase mediated by L-channels+non-specific (non-L-channel mediated fluorescence increase). The coefficient of variation amongst these wells for the K^+-evoked peak increase in fluorescence units was typically less than 12%. […]

N-type calcium channel, sequence (Q00975 whole entry): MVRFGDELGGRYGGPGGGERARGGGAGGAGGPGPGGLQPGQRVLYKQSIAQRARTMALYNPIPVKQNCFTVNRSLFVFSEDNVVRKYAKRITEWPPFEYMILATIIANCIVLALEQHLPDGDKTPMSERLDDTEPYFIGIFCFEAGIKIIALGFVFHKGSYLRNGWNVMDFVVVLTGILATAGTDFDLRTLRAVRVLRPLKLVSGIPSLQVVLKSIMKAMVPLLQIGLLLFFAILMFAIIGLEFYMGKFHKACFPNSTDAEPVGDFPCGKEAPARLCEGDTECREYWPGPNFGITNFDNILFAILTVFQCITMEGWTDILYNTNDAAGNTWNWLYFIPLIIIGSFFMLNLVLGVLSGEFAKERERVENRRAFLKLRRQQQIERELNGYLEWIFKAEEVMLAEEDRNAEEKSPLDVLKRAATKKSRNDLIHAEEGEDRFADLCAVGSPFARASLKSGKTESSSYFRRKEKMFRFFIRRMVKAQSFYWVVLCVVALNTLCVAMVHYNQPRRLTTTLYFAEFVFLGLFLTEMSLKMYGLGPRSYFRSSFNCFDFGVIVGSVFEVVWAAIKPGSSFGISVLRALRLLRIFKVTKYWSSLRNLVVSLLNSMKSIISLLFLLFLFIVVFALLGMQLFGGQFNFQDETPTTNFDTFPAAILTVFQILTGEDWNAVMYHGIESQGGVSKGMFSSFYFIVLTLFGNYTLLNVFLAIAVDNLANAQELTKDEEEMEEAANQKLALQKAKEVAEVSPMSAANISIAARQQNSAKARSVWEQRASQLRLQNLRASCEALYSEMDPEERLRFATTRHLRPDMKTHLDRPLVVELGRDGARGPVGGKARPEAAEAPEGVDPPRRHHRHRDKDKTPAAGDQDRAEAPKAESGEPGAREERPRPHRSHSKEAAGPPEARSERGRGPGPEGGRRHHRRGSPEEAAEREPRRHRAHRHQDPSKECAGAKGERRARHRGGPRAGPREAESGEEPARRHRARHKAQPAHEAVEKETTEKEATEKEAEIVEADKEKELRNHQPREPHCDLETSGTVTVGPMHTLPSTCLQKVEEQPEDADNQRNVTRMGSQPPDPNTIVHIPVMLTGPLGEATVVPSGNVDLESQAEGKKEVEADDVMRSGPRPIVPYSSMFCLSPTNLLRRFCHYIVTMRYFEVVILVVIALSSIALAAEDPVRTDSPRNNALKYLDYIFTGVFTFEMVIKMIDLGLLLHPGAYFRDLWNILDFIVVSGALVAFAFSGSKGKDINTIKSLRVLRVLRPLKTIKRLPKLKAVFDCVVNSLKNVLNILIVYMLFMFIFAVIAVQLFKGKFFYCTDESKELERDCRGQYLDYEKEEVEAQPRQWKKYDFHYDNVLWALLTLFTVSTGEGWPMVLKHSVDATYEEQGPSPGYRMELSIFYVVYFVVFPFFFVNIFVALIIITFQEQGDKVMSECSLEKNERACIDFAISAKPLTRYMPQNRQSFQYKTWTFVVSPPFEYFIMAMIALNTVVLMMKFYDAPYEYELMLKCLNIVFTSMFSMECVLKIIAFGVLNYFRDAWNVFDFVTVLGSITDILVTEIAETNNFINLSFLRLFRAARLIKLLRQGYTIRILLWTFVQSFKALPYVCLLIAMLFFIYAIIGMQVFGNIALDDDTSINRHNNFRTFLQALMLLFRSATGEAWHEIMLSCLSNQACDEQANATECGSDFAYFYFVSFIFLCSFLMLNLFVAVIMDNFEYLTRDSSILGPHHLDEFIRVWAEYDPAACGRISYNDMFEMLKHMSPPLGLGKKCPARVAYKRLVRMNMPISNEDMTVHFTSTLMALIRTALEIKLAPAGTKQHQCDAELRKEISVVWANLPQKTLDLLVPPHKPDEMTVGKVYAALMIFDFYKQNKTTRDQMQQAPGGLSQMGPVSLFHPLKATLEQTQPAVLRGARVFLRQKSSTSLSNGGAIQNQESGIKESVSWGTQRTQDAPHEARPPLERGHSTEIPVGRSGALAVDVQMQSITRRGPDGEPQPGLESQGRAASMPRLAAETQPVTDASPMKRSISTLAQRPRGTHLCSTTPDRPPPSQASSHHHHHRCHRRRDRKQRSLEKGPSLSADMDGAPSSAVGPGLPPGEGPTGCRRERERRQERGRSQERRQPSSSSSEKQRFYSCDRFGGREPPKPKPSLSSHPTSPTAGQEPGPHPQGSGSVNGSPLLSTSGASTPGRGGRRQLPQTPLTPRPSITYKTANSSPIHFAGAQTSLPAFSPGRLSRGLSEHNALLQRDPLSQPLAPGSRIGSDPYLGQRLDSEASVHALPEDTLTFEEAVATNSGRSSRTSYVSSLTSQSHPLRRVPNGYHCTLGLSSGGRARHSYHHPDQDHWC
N-type calcium channel, sequence (P54289 25-956 partner limits assumed): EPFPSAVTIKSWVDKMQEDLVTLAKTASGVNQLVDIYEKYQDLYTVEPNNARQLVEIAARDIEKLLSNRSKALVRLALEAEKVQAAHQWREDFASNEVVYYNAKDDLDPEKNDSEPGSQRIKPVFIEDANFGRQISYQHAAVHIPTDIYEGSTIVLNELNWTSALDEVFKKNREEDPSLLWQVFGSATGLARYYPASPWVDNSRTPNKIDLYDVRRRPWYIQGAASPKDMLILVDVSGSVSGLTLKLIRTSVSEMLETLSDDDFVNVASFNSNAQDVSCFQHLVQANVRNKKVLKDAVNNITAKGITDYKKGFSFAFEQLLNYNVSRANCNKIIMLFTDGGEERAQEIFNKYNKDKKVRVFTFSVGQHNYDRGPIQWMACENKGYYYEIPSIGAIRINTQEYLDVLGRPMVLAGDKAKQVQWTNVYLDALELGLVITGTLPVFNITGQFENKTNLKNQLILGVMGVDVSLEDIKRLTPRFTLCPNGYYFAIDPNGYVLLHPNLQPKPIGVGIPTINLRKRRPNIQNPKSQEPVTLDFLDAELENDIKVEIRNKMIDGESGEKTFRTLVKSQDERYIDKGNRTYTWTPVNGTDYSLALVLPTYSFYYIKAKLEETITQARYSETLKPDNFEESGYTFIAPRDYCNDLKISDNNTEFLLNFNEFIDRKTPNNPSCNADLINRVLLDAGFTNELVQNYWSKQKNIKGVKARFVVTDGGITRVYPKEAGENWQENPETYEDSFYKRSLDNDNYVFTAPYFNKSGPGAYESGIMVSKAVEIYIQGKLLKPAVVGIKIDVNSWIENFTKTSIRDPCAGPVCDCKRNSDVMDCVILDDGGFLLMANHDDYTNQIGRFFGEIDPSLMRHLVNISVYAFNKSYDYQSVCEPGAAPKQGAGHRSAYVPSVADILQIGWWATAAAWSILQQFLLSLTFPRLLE
N-type calcium channel, sequence (P54289 957-1103 partner limits assumed): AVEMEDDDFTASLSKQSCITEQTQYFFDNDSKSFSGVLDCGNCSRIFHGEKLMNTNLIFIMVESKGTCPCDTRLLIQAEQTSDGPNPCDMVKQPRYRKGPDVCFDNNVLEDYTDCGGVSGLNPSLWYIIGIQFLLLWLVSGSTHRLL
N-type calcium channel, sequence (Q02641 whole entry partner): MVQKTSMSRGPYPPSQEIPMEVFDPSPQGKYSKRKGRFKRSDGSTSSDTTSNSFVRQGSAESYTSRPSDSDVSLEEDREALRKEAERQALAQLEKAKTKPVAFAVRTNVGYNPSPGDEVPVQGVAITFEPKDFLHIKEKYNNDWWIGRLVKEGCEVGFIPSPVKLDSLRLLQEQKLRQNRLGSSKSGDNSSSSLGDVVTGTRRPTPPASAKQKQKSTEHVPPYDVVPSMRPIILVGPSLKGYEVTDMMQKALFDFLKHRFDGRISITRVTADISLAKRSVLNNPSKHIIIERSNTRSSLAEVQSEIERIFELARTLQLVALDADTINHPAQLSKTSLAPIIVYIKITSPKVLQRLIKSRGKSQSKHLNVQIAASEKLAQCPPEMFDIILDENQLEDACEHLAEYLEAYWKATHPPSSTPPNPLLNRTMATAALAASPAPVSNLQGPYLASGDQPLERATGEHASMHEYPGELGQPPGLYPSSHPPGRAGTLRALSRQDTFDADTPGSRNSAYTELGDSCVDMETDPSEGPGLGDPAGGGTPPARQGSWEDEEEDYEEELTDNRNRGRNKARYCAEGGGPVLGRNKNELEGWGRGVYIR

| Molecule | IC50 [1] [µM] | further results |
| --- | --- | --- |
| COc1ccc2nc(-c3ccccc3)cc(C(=O)O)c2c1 [Example 21, 6-methoxy-2-phenyl-4-quinolinecarboxylic acid] | > 10 |  |
| Cc1c(-c2ccccc2)nc2ccccc2c1N [Example 16, 3-methyl-2-phenyl-4-quinolinamine] | 3.6 | inhibition in vivo at 30 mg/kg ([2]; ip): 91%; inhibition in vivo at 30 mg/kg ([2]; po): 11% |
| COc1ccc(-c2cc(N)c3ccccc3n2)cc1 [Example 5, 2-(4-methoxyphenyl)-4-quinolinamine] | 4.8 |  |
| Cc1cccc(-c2cc(N)c3ccccc3n2)c1 [Example 37, 2-(3-methylphenyl)-4-quinolinamine] | 1.2 | inhibition in vivo at 30 mg/kg ([2]; ip, 30 mg/kg, i.p., rats): 47%; inhibition in vivo at 30 mg/kg ([2]; po, 30 mg/kg, p.o., rats): 13% |
| conotoxin MVIIA |  | success rate for the treatment of pain [3]: ~85% |
| Nc1cc(-c2ccc(Cl)cc2)nc2ccccc12 [Example 36, 2-(4-chlorophenyl)-4-quinolinamine] | 5.5 |  |
| O=C(O)c1cc(-c2ccc(Cl)cc2)nc2ccccc12 [Example 2, 2-(4-chlorophenyl)-4-quinolinecarboxylic acid] | > 10 |  |
| Nc1c2c(nc3ccccc13)-c1ccccc1CC2 [Example 27, 5,6-dihydrobenzo[c]acridin-7-amine] | 1.1 | inhibition in vivo at 30 mg/kg ([2]; ip, 30 mg/kg, i.p., rats): 50% |
| Nc1ccc2nc(/C=C/c3ccccc3)cc(N)c2c1 [Example 24, 2-[(E)-2-phenylethenyl]-4,6-quinolinediamine] | 5.4 |  |
| Cc1ccc(-c2cc(N)c3ccccc3n2)cc1 [Example 32, 2-(4-methylphenyl)-4-quinolinamine] | 3.1 |  |
| Nc1cc(/C=C/c2cccc(F)c2)nc2ccccc12 [Example 18, 2-[(E)-2-(3-fluorophenyl)ethenyl]-4-quinolinamine] | 4.3 | inhibition in vivo at 30 mg/kg ([2]; ip, 30 mg/kg, i.p., rats): 19% |
| Cc1cccc2c(N)cc(-c3ccccc3)nc12 [Example 20, 8-methyl-2-phenyl-4-quinolinamine] | 3.1 |  |
| COc1cccc2c(N)cc(-c3ccccc3)nc12 [Example 26, 8-methoxy-2-phenyl-4-quinolinamine] | 5 |  |
| Cc1ccc(-c2cc(C(=O)O)c3ccccc3n2)cc1 [Example 7, 2-(4-methylphenyl)-4-quinolinecarboxylic acid] | > 10 |  |
| Nc1cc(-c2ccccc2)nc2ccccc12 [Example 6, 2-phenyl-4-quinolinamine] | 4.4 | inhibition in vivo at 30 mg/kg ([2]; ip, 30 mg/kg, i.p., rats): 88% |
| Cc1cc(C)c2c(N)cc(-c3ccccc3)nc2c1 [Example 19, 5,7-dimethyl-2-phenyl-4-quinolinamine] | 1.5 |  |
| Cc1c(-c2ccccc2)nc2ccccc2c1C(=O)O [Example 15, 3-methyl-2-phenyl-4-quinolinecarboxylic acid] | > 10 |  |
| Nc1ccc2nc(/C=C/c3cccc(F)c3)cc(N)c2c1 [Example 25, 2-[(E)-2-(3-fluorophenyl)ethenyl]-4,6-quinolinediamine] | 3.8 |  |
| O=C(O)c1cc(-c2ccccc2F)nc2ccccc12 [Example 28, 2-(2-fluorophenyl)-4-quinolinecarboxylic acid] | > 10 |  |
| Nc1cc(-c2cccc(F)c2)nc2ccccc12 [Example 9, 2-(3-fluorophenyl)-4-quinolinamine] | 2.1 | inhibition in vivo at 30 mg/kg ([2]; ip, 30 mg/kg, i.p., rats): 90%; inhibition in vivo at 30 mg/kg ([2]; po, 30 mg/kg, p.o., rats): 41% |

| Molecule | IC50 [1] [µM] | further results |
| --- | --- | --- |
| Nc1ccc2nc(-c3ccccc3)cc(N)c2c1 [Example 3, 2-phenyl-4,6-quinolinediamine] | 3.5 | inhibition in vivo at 30 mg/kg ([2]; ip, 30 mg/kg, i.p., rats): 45%; inhibition in vivo at 30 mg/kg ([2]; po, 30 mg/kg, p.o., rats): 28% |
| Nc1c2c(nc3ccccc13)-c1ccccc1CCC2 [Example 34, 6,7-dihydro-5H-benzo[6,7]cyclohepta[1,2-b]quinolin-8-amine] | 0.9 |  |
| Nc1cc(-c2cccs2)nc2ccccc12 [Example 14, 2-(2-thienyl)-4-quinolinamine] | 5.4 | inhibition in vivo at 30 mg/kg ([2]; ip, 30 mg/kg, i.p., rats): 25% |
| Cc1cccc(-c2cc(C(=O)O)c3ccccc3n2)c1 [Example 33, 2-(3-methylphenyl)-4-quinolinecarboxylic acid] | > 10 |  |
| Nc1cc(-c2ccc(F)cc2)nc2ccccc12 [Example 30, 2-(4-fluorophenyl)-4-quinolinamine] | 3.4 |  |
| CC(C)(C)c1cc(N)c2ccccc2n1 [Example 35, 2-tert-butyl-4-quinolinamine] | > 10 |  |
| CC(=O)Nc1cc(/C=C/c2ccccc2)nc2ccccc12 [Example 12, N-{2-[(E)-2-phenylethenyl]-4-quinolinyl}acetamide] | 5 |  |
| CCOC(=O)C1=C(C)NC(C)=C(C(=O)OC)C1c1cccc([N+](=O)[O-])c1 (stereo not shown) [nitrendipine] |  | IC50 [4]: 0.03 µM |
| COc1cccc2c(C(=O)O)cc(-c3ccccc3)nc12 [Example 4, 8-methoxy-2-phenyl-4-quinolinecarboxylic acid] | > 10 |  |
| COc1ccc(-c2cc(C(=O)O)c3ccccc3n2)cc1 [Example 1, 2-(4-methoxyphenyl)-4-quinolinecarboxylic acid] | > 10 |  |
| CCc1c(-c2ccccc2)nc2ccccc2c1C(=O)O [Example 23, 3-ethyl-2-phenyl-4-quinolinecarboxylic acid] | > 10 |  |
| CCc1c(-c2ccccc2)nc2ccccc2c1N [Example 29, 3-ethyl-2-phenyl-4-quinolinamine] | 1.2 |  |
| CC(=O)Nc1cc(/C=C/c2cccc(F)c2)nc2ccccc12 [Example 17, N-{2-[(E)-2-(3-fluorophenyl)ethenyl]-4-quinolinyl}acetamide] | 6.4 |  |
| Nc1cc(-c2ccccc2F)nc2ccccc12 [Example 31, 2-(2-fluorophenyl)-4-quinolinamine] | 8 |  |
| COc1ccc2nc(-c3ccccc3)cc(N)c2c1 [Example 22, 6-methoxy-2-phenyl-4-quinolinamine] | ~3 | inhibition in vivo at 30 mg/kg ([2]; ip, 30 mg/kg, i.p., rats): 16% |
| CNc1cc(-c2cccc(F)c2)nc2ccccc12 [Example 10, 2-(3-fluorophenyl)-N-methyl-4-quinolinamine] | 1.6 | inhibition in vivo at 30 mg/kg ([2]; ip, 30 mg/kg, i.p., rats): 77%; inhibition in vivo at 30 mg/kg ([2]; po, 30 mg/kg, p.o., rats): 46% |
| CN(C)c1cc(-c2cccc(F)c2)nc2ccccc12 [Example 11, 2-(3-fluorophenyl)-N,N-dimethyl-4-quinolinamine] | 3 | inhibition in vivo at 30 mg/kg ([2]; ip, 30 mg/kg, i.p., rats): 64% |
| Nc1cc(/C=C/c2ccccc2)nc2ccccc12 [Example 13, 2-[(E)-2-phenylethenyl]-4-quinolinamine] | 1.4 |  |
| O=C(O)c1cc(-c2ccc(F)cc2)nc2ccccc12 [Example 8, 2-(4-fluorophenyl)-4-quinolinecarboxylic acid] | > 10 |  |
